Measurements: patent US8895717B2, “Delivery of siRNA by neutral lipid compositions” (The Board of Regents of the University of Texas System, priority 2005, dated 2014)
d = 2'-deoxy (DNA); r = 2'-OH (RNA)

Key:
[1] = tested on: FAK; test: In vivo down regulation of FAK by siRNA in DOPC (Western blot, IHC); design: species or system human; conditions: for FAK expression at the conclusion of the therapy studies: HeyA8, IHC
Method: siRNA for in vivo delivery was incorporated into the phospholipid 1,2-dioleoyl-sn-glycero-3-phosphatidylcholine (DOPC). DOPC and siRNA were mixed in the presence of excess tertiary-butanol at a ratio of […], as previously described (Landen et al., 2005). Tween-20 was added to the mixture at a ratio of 1:19. The mixture was vortexed, frozen in an acetone/dry ice bath, and lyophilized. Before in vivo administration, this preparation was hydrated with normal (0.9%) saline at a concentration of 15 μg/ml to achieve the desired dose of 150-200 μl per injection. To estimate the quantity of siRNA not taken up by liposomes free siRNA was separated from liposomes by using filter units with a 30,000 nominal molecular weight limit (Millipore Corp, Billerica, Mass.). The liposomal suspension was added to the filters and centrifuged at 5,000 g for 40 min at room temperature. Fractions were collected, the material trapped in the filter was reconstituted with 0.9% saline, and the amount of siRNA in the collected fraction and eluent were measured by spectrophotometry.
Cells were lysed in modified RIPA buffer (50 mM Tris, 150 mM NaCl, 1% triton, 0.5% deoxycholate plus 25 µg/ml leupeptin, 10 µg/ml aprotinin, 2 mM EDTA, and 1 mM sodium orthovanadate (Sigma Chemical Co, St. Louis, Mo.) as previously described (Sood et al., 2004; Sood et al., 2002). A sample was removed from culture dishes by cell scraping and centrifuged at 12,500 rpm for 30 min. The […] protein concentration of the supernatant was determined using a bicinchoninic acid protein assay reagent kit (Pierce, Rockford, Ill.), and whole cell lysates were analyzed by 7.5% SDS-PAGE. Samples were then transferred to nitrocellulose membrane by semi-dry transfer (BioRad Laboratories, Hercules, Calif.). Membranes were blocked with 5% nonfat milk, and incubated with 0.25 μg/mL anti-FAK antibody (Biosource, International Camarillo, Calif.) for 1 h at room temperature. Antibody was detected with 0.167 μg/mL HRP-conjugated anti-mouse secondary antibody (The Jackson Laboratory, Bar Harbor, Me.) and developed with an enhanced chemiluminescence detection kit (Pierce). Equal loading was confirmed by detection of β-actin (0.1 μg/ml, anti-β-actin antibody, Sigma Chemical). Densitometric analysis was performed using the Scion Imaging software (Scion Corporation, Frederick, Md.).
To evaluate the therapeutic effect of the combination of FAK siRNA and docetaxel in a mouse model, preliminary dose-response studies were performed experiments for FAK siRNA. HeyA8 cells were implanted i.p. and treatment was initiated 21 days following tumor injection when i.p. tumors could be assessed by palpation. Mice were randomly distributed into three groups (n=10 per group) and were treated with a single dose of PBS, control siRNA or FAK siRNA at 150 μg/kg in 200 μl volume. Following treatment, 3 mice were sacrificed at definite time-points (24 h, 48 h, 96 h and 6 days). Fluorescent IHC analysis was performed on any excised peritoneal cavity tumors as described below.
The inventors investigated the inhibition of FAK expression in combination with docetaxel and the in vivo therapeutic potential. Prior to initiating therapy studies, the ability of FAK-targeted siRNA incorporated in DOPC to down-regulate FAK in vivo was assessed. Nude mice bearing intraperitoneal HeyA8 tumors were injected with a single dose of FAK siRNA i.p., and tumors were harvested 1, 2, 4, and 6 days after injection for Western blot analysis and immunohistochemistry for assessing level of FAK expression. […] FAK expression was not affected by control siRNA. Twice weekly administration of siRNA (150 μg/kg) was selected as an exemplary dosing schedule for subsequent therapy experiments.

[2] = tested on: HeyA8 cells; test: Cytotoxicity assay (MTT), HeyA8; type: cell-based, human; conditions: HeyA8; siRNA 48 hours before docetaxel; at 50% cytotoxicity
Method: The medium was exchanged after 48 hours with increasing concentrations of docetaxel (obtained from Aventis Pharma, Bridgewater, N.J.) dissolved in ethanol (final concentration range, 0.1-10,000 nmol/L prepared in medium) or cisplatin (purchased from LKT Laboratories, Inc., St. Paul, Minn.) dissolved in water. After a 96-hour incubation, 50 μL of 0.15% 3-(4,5-dimethylthiazol-2-yl)-2,5-diphenyltetrazolium bromide was added to each well and incubated for 2 hours. The supernatant was removed, and cells were dissolved in 100 μL DMSO. The absorbance at 570 nm was recorded using a FALCON microplate reader (Becton Dickinson Labware, Bedford, Mass.), and cell survival expressed as a percent increase or decrease above control conditions, after subtracting blank A570 readings. The IC50 concentration was determined by finding the A570 reading midpoint between maximal and minimal readings and finding the chemotherapy concentration that intersects the growth curve at that A570 reading.

[3] = tested on: Murine FAK; test: FAK siRNA treatment of murine endothelial cells; type: cell-based, mouse; conditions: murine endothelial cells from the ovary of ImmortoMice
Text: To determine potential mechanisms underlying the efficacy of anti-FAK based therapy, its effects on several biological endpoints were examined, including angiogenesis (MVD), proliferation (PCNA), and apoptosis (TUNEL). Due to growing evidence related to FAK and tumor angiogenesis (Kornberg et al., 2004; Mitra et al., 2005). The inventors evaluated vessel density (FIG. 14B) in the tumors harvested from the studies described above. […] To determine if FAK siRNA mediated in vivo effects on endothelial cells were direct, the inventors treated murine endothelial cells isolated from the ovary of ImmortoMice (H-2k(b)-ts A58) (Langley et al., 2003) with FAK siRNA. Murine FAK levels were not altered by the FAK siRNA used for the in vivo studies (data not shown).

[4] = tested on: SKOV3 cells; test: TUNEL apoptosis assay, SKOV3; type: cell-based, human; conditions: sensitive and resistant cell lines
Method: Terminal deoxynucleotidyl transferase-mediated nick end labeling-positive cells were detected using Dead End Fluorometric terminal deoxynucleotidyl transferase-mediated nick end labeling system (APO-DIRECT, BD Biosciences/PharMingen, San Diego, Calif.) according to the manufacturer's instructions. […] Cells were fixed with 4% paraformaldehyde solution for 25 minutes on ice. Intracellular DNA fragments were then labeled by exposing cells to fluorescein-12-dUTP, treated with propidium iodide and RNaseA solution, and analyzed by flow cytometry (EPICS XL, Beckman Coulter, Miami, Fla.). The percentages of apoptotic cells were averaged over three consecutive experiments.

Substance	FAK expression at the conclusion of the therapy studies [1]	reduction in FAK levels ([1]; HeyA8 tumors, within 48 hours of a single dose in DOPC, Western blot)	persistence of FAK reduction ([1]; single dose in DOPC)	recovery of FAK expression ([1]; single treatment in DOPC)	fold greater docetaxel cytotoxicity after FAK down-regulation [2]	Murine FAK levels [3]	FAK expression ([1]; single dose)	apoptosis in combination with docetaxel [4]
FAK siRNA: sense r(CCACCUGGGCCAGUAUUAU)d(TT), antisense r(AUAAUACUGGCCCAGGUGG)d(TT); for in vivo delivery incorporated into DOPC (sense CCACCUGGGCCAGUAUUAUTT; antisense AUAAUACUGGCCCAGGUGGTT; sugars from the 5' end r19 d2, backbone not given here)	sustained suppression of FAK expression	> 80%	at least 4 days	began to return to basal levels by 6 days	8 fold	not altered	–	–
control siRNA: sense r(UUUUCCGAACGUGUCACGU)dTT, antisense r(ACGUGACACGUUCGGAGAA)dTT, no homology with human mRNA; in vivo in DOPC (sense UUUUCCGAACGUGUCACGUTT; antisense ACGUGACACGUUCGGAGAATT; sugars from the 5' end r19 d2, backbone not given here)	not suppressed	–	–	–	–	–	not affected	did not enhance apoptosis in combination with docetaxel
